According to patent US20260116920A1, “HUMAN TRANSFERRIN RECEPTOR BINDING PEPTIDE” (PEPTIDREAM INC., priority 2021, published 2026):
Values joined by “and” are separate entries in the source; they are usually repeats but may differ in a detail not shown here. Equal entries are not always repeated. Where two headings read alike, the source gives them in different places.

Target: T1, human transferrin receptor (hTfR) (Homo sapiens, UniProt P02786)
T1 construct: made in house
Assay: Evaluation of molecular interaction between transferrin receptor (hTfR) and peptide using surface plasmon resonance (SPR)
Format: binding
Method in brief: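 Using a Ni-NTA surface bearing covalently coupled hTfR dimer, peptides were tested at five concentrations from 5 to 100 nM. Running buffer was 10 mM HEPES pH 8.0, 150 mM NaCl, 0.05% Tween 20, 0.1% BSA, 1.0% DMSO; single-cycle sensorgrams were least-squares fitted for KD.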

[1] = surface plasmon resonance, binding to hTfR, KD class symbol, read-out: SPR (KD value)

T1 sequence (P02786 89-760 limits assumed): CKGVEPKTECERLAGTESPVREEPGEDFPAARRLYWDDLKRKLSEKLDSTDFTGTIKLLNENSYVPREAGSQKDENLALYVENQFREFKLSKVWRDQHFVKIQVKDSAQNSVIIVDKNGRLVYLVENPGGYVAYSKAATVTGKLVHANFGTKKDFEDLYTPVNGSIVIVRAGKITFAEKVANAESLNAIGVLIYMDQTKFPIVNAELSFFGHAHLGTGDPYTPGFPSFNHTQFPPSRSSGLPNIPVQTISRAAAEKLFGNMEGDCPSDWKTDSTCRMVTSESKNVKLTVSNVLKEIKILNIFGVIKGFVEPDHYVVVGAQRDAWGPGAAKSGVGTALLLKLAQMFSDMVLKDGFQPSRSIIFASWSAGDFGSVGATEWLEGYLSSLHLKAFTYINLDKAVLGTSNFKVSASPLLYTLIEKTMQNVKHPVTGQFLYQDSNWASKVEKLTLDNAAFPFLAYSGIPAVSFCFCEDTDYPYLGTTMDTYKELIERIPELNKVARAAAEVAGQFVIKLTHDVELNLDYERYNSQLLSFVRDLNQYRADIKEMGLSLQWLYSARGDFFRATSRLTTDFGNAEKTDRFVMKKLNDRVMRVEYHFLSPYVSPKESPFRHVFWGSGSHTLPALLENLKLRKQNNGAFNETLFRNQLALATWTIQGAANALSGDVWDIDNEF

SMILES | Kd [1] | Kd (SPR, immobilized recombinant hTfR, single-cycle kinetics, substitution variants of 894_3151, read-out: KD) | KD (Each Peptide)/KD (894_3151) (ratio of KD to KD of 894_3151 (SEQ ID NO: 13))
CC[C@H](C)[C@@H]1NC(=O)[C@H](Cc2ccc(O)cc2)NC(=O)[C@H](Cc2ccc(O)cc2)NC(=O)[C@H](CC(N)=O)NC(=O)[C@H](Cc2c[nH]c3ccccc23)NC(=O)[C@H](C(C)C)NC(=O)[C@H](Cc2ccccc2)N(C)C(=O)[C@H](C(C)C)NC(=O)[C@H](C)NC(=O)CSC[C@@H](C(=O)NCCOCCOCCOCCOCCC(N)=O)NC(=O)[C@H](Cc2ccc(O)cc2)N(C)C(=O)[C@H](Cc2ccccc2)NC(=O)[C@H](CCCNC(=N)N)NC(=O)[C@H](CCCNC(=N)N)N(C)C(=O)[C@H]([C@@H](C)CC)NC1=O [compound 16] | 1 to 100 nM | – | –
CC[C@H](C)[C@@H]1NC(=O)[C@H](Cc2ccc(OC)cc2)NC(=O)[C@H](Cc2ccc(O)cc2)NC(=O)[C@H](CC(N)=O)NC(=O)[C@H](Cc2c[nH]c3ccccc23)NC(=O)[C@H](C(C)C)NC(=O)[C@H](Cc2ccccc2)N(C)C(=O)[C@H](C(C)C)NC(=O)[C@H](C)NC(=O)CSC[C@@H](C(=O)NCCOCCOCCOCCOCCC(N)=O)NC(=O)[C@H](Cc2ccc(O)cc2)N(C)C(=O)[C@H](Cc2ccccc2)NC(=O)[C@H](CCCNC(=N)N)NC(=O)[C@H](CCCNC(=N)N)N(C)C(=O)[C@H]([C@@H](C)CC)NC1=O [compound 17] | 1 to 100 nM | – | –
CC[C@H](C)[C@@H]1NC(=O)[C@H](Cc2ccc(O)cc2)NC(=O)[C@H](Cc2ccc(O)cc2)NC(=O)[C@H](CC(N)=O)NC(=O)[C@H](Cc2c[nH]c3ccc(Cl)cc23)NC(=O)[C@H](C(C)C)NC(=O)[C@H](Cc2ccccc2)N(C)C(=O)[C@H](C(C)C)NC(=O)[C@H](C)NC(=O)CSC[C@@H](C(=O)NCCOCCOCCOCCOCCC(N)=O)NC(=O)[C@H](Cc2ccc(O)cc2)N(C)C(=O)[C@H](Cc2ccccc2)NC(=O)[C@@H](CCCNC(=N)N)NC(=O)[C@H](CCCNC(=N)N)NC(=O)[C@H]([C@@H](C)CC)NC1=O [compound 20] | 1 to 100 nM | – | –
CC[C@H](C)[C@@H]1NC(=O)[C@H](Cc2ccc(OC)cc2)NC(=O)[C@H](Cc2ccc(O)cc2)NC(=O)[C@H](CC(N)=O)NC(=O)[C@H](Cc2c[nH]c3ccc(Cl)cc23)NC(=O)[C@H](C(C)C)NC(=O)[C@H](Cc2ccccc2)N(C)C(=O)[C@H](C(C)C)NC(=O)[C@H](C)NC(=O)CSC[C@@H](C(=O)NCCOCCOCCOCCOCCC(N)=O)NC(=O)[C@H](Cc2ccc(O)cc2)N(C)C(=O)[C@H](Cc2ccccc2)NC(=O)[C@@H](CCCNC(=N)N)NC(=O)[C@H](CCCNC(=N)N)NC(=O)[C@H]([C@@H](C)CC)NC1=O [compound 21] | 1 to 100 nM | – | –
CC[C@H](C)[C@@H]1NC(=O)[C@H](Cc2ccc(O)cc2)NC(=O)[C@H](Cc2ccc(O)cc2)NC(=O)[C@H](CC(N)=O)NC(=O)[C@H](Cc2c[nH]c3ccc(Cl)cc23)NC(=O)[C@H](C(C)C)NC(=O)[C@H](Cc2ccc(F)cc2)N(C)C(=O)[C@H](C(C)C)NC(=O)[C@H](C)NC(=O)CSC[C@@H](C(=O)NCCOCCOCCOCCOCCC(N)=O)NC(=O)[C@H](Cc2ccc(O)cc2)N(C)C(=O)[C@H](Cc2ccccc2)NC(=O)[C@@H](CCCNC(=N)N)NC(=O)[C@H](CCCNC(=N)N)NC(=O)[C@H]([C@@H](C)CC)NC1=O [compound 24] | 1 to 100 nM | – | –
CC[C@H](C)[C@@H]1NC(=O)[C@H](Cc2ccc(O)cc2)NC(=O)[C@H](Cc2ccc(O)cc2)NC(=O)[C@H](CC(N)=O)NC(=O)[C@H](Cc2c[nH]c3ccc(Cl)cc23)NC(=O)[C@H](C(C)C)NC(=O)[C@H](Cc2ccc(F)cc2)N(C)C(=O)[C@H](C(C)C)NC(=O)[C@H](C)NC(=O)CSC[C@@H](C(=O)NCCOCCOCCOCCOCCC(N)=O)NC(=O)[C@H](Cc2ccc(O)cc2)N(C)C(=O)[C@H](Cc2ccccc2)NC(=O)[C@@H](CCCNC(=N)N)NC(=O)[C@H](CCCNC(=N)N)N(C)C(=O)[C@H]([C@@H](C)CC)NC1=O [compound 25] | 100 to 1000 nM | – | –
CC[C@H](C)[C@@H]1NC(=O)[C@H](Cc2ccc(OC)cc2)NC(=O)[C@H](Cc2ccc(O)cc2)NC(=O)[C@H](CC(N)=O)NC(=O)[C@H](Cc2c[nH]c3ccc(Cl)cc23)NC(=O)[C@H](C(C)C)NC(=O)[C@H](Cc2ccc(F)cc2)N(C)C(=O)[C@H](C(C)C)NC(=O)[C@H](C)NC(=O)CSC[C@@H](C(=O)NCCOCCOCCOCCOCCC(N)=O)NC(=O)[C@H](Cc2ccc(O)cc2)N(C)C(=O)[C@H](Cc2ccccc2)NC(=O)[C@@H](CCCNC(=N)N)NC(=O)[C@H](CCCNC(=N)N)NC(=O)[C@H]([C@@H](C)CC)NC1=O [compound 26] | 1 to 100 nM | – | –
CC[C@H](C)[C@@H]1NC(=O)[C@H](Cc2ccc(OC)cc2)NC(=O)[C@H](Cc2ccc(O)cc2)NC(=O)[C@H](CC(N)=O)NC(=O)[C@H](Cc2c[nH]c3ccc(Cl)cc23)NC(=O)[C@H](C(C)C)NC(=O)[C@H](Cc2ccc(F)cc2)N(C)C(=O)[C@H](C(C)C)NC(=O)[C@H](C)NC(=O)CSC[C@@H](C(=O)NCCOCCOCCOCCOCCC(N)=O)NC(=O)[C@H](Cc2ccc(O)cc2)N(C)C(=O)[C@H](Cc2ccccc2)NC(=O)[C@@H](CCCNC(=N)N)NC(=O)[C@H](CCCNC(=N)N)N(C)C(=O)[C@H]([C@@H](C)CC)NC1=O [compound 27] | 1 to 100 nM | – | –

Next, values leading:

Kd [1] | Kd (SPR, immobilized recombinant hTfR, single-cycle kinetics, substitution variants of 894_3151, read-out: KD) | KD (Each Peptide)/KD (894_3151) (ratio of KD to KD of 894_3151 (SEQ ID NO: 13)) | SMILES
1 to 100 nM | – | – | CC[C@H](C)[C@@H]1NC(=O)[C@H](Cc2ccc(OC)cc2)NC(=O)[C@H](Cc2ccc(O)cc2)NC(=O)[C@H](CC(N)=O)NC(=O)[C@H](Cc2c[nH]c3ccccc23)NC(=O)[C@H](C(C)C)NC(=O)[C@H](Cc2cccc(Cl)c2)N(C)C(=O)[C@H](C(C)C)NC(=O)[C@H](C)NC(=O)CSC[C@@H](C(=O)NCC(=O)N[C@@H](CCCCN=[N+]=[N-])C(N)=O)NC(=O)[C@H](Cc2ccc(O)cc2)N(C)C(=O)[C@H](Cc2ccccc2)NC(=O)[C@H](CCCNC(=N)N)NC(=O)[C@H](CCCCN)NC(=O)[C@H]([C@@H](C)CC)NC1=O [compound 12]
< 1 nM | 1.3 nM | 1.0 and 1.4 | CC[C@H](C)[C@@H]1NC(=O)[C@H](Cc2ccc(O)cc2)NC(=O)[C@H](Cc2ccc(O)cc2)NC(=O)[C@H](CC(N)=O)NC(=O)[C@H](Cc2c[nH]c3ccccc23)NC(=O)[C@H](C(C)C)NC(=O)[C@H](Cc2ccccc2)N(C)C(=O)[C@H](C(C)C)NC(=O)[C@H](C)NC(=O)CSC[C@@H](C(=O)NCC(=O)N[C@@H](CCCCN=[N+]=[N-])C(N)=O)NC(=O)[C@H](Cc2ccc(O)cc2)N(C)C(=O)[C@H](Cc2ccc(O)cc2)NC(=O)[C@H](CCCNC(=N)N)NC(=O)[C@H](CCCNC(=N)N)NC(=O)[C@H]([C@@H](C)CC)NC1=O [compound 13]
1 to 100 nM | – | – | CC[C@H](C)[C@@H]1NC(=O)[C@H](Cc2ccc(O)cc2)NC(=O)[C@H](Cc2ccc(O)cc2)NC(=O)[C@H](CC(N)=O)NC(=O)[C@H](Cc2c[nH]c3ccccc23)NC(=O)[C@H](C(C)C)NC(=O)[C@H](Cc2ccccc2)N(C)C(=O)[C@H](C(C)C)NC(=O)[C@H](C)NC(=O)CSC[C@@H](C(=O)NCCOCCOCCOCCOCCC(N)=O)NC(=O)[C@H](Cc2ccc(O)cc2)N(C)C(=O)[C@H](Cc2ccccc2)NC(=O)[C@@H](CCCNC(=N)N)NC(=O)[C@H](CCCNC(=N)N)NC(=O)[C@H]([C@@H](C)CC)NC1=O [compound 14]
1 to 100 nM | – | – | CC[C@H](C)[C@@H]1NC(=O)[C@H](Cc2ccc(OC)cc2)NC(=O)[C@H](Cc2ccc(O)cc2)NC(=O)[C@H](CC(N)=O)NC(=O)[C@H](Cc2c[nH]c3ccccc23)NC(=O)[C@H](C(C)C)NC(=O)[C@H](Cc2ccccc2)N(C)C(=O)[C@H](C(C)C)NC(=O)[C@H](C)NC(=O)CSC[C@@H](C(=O)NCCOCCOCCOCCOCCC(N)=O)NC(=O)[C@H](Cc2ccc(O)cc2)N(C)C(=O)[C@H](Cc2ccccc2)NC(=O)[C@@H](CCCNC(=N)N)NC(=O)[C@H](CCCNC(=N)N)NC(=O)[C@H]([C@@H](C)CC)NC1=O [compound 15]
< 1 nM | – | – | CC[C@H](C)[C@@H]1NC(=O)[C@H](Cc2ccc(O)cc2)NC(=O)[C@H](Cc2ccc(O)cc2)NC(=O)[C@H](CC(N)=O)NC(=O)[C@H](Cc2c[nH]c3ccc(Cl)cc23)NC(=O)[C@H](C(C)C)NC(=O)[C@H](Cc2ccccc2)N(C)C(=O)[C@H](C(C)C)NC(=O)[C@H](C)NC(=O)CSC[C@@H](C(=O)NCCOCCOCCOCCOCCC(N)=O)NC(=O)[C@H](Cc2ccc(O)cc2)N(C)C(=O)[C@H](Cc2ccccc2)NC(=O)[C@H](CCCNC(=N)N)NC(=O)[C@H](CCCNC(=N)N)NC(=O)[C@H]([C@@H](C)CC)NC1=O [compound 18]
< 1 nM | – | – | CC[C@H](C)[C@@H]1NC(=O)[C@H](Cc2ccc(OC)cc2)NC(=O)[C@H](Cc2ccc(O)cc2)NC(=O)[C@H](CC(N)=O)NC(=O)[C@H](Cc2c[nH]c3ccc(Cl)cc23)NC(=O)[C@H](C(C)C)NC(=O)[C@H](Cc2ccccc2)N(C)C(=O)[C@H](C(C)C)NC(=O)[C@H](C)NC(=O)CSC[C@@H](C(=O)NCCOCCOCCOCCOCCC(N)=O)NC(=O)[C@H](Cc2ccc(O)cc2)N(C)C(=O)[C@H](Cc2ccccc2)NC(=O)[C@H](CCCNC(=N)N)NC(=O)[C@H](CCCNC(=N)N)NC(=O)[C@H]([C@@H](C)CC)NC1=O [compound 19]
< 1 nM | – | – | CC[C@H](C)[C@@H]1NC(=O)[C@H](Cc2ccc(O)cc2)NC(=O)[C@H](Cc2ccc(O)cc2)NC(=O)[C@H](CC(N)=O)NC(=O)[C@H](Cc2c[nH]c3ccc(Cl)cc23)NC(=O)[C@H](C(C)C)NC(=O)[C@H](Cc2ccc(F)cc2)N(C)C(=O)[C@H](C(C)C)NC(=O)[C@H](C)NC(=O)CSC[C@@H](C(=O)NCCOCCOCCOCCOCCC(N)=O)NC(=O)[C@H](Cc2ccc(O)cc2)N(C)C(=O)[C@H](Cc2ccccc2)NC(=O)[C@H](CCCNC(=N)N)NC(=O)[C@H](CCCNC(=N)N)NC(=O)[C@H]([C@@H](C)CC)NC1=O [compound 22]
< 1 nM | – | – | CC[C@H](C)[C@@H]1NC(=O)[C@H](Cc2ccc(OC)cc2)NC(=O)[C@H](Cc2ccc(O)cc2)NC(=O)[C@H](CC(N)=O)NC(=O)[C@H](Cc2c[nH]c3ccc(Cl)cc23)NC(=O)[C@H](C(C)C)NC(=O)[C@H](Cc2ccc(F)cc2)N(C)C(=O)[C@H](C(C)C)NC(=O)[C@H](C)NC(=O)CSC[C@@H](C(=O)NCCOCCOCCOCCOCCC(N)=O)NC(=O)[C@H](Cc2ccc(O)cc2)N(C)C(=O)[C@H](Cc2ccccc2)NC(=O)[C@H](CCCNC(=N)N)NC(=O)[C@H](CCCNC(=N)N)NC(=O)[C@H]([C@@H](C)CC)NC1=O [compound 23]
